According to ChEMBL document CHEMBL1142325, “Discovery of a novel series of biphenyl benzoic acid derivatives as potent and selective human beta3-adrenergic receptor agonists with good oral bioavailability. Part I” (J Med Chem, 2008):
Each block holds one molecule with its values, some of them ahead of it.

Experiments:
[1] = in vivo; details: dog, iv, 1 mg/mL
[2] = in vivo; details: dog, iv, 1 mg/mL; remark: listed apart in the source
[3] = in vivo; details: dog, po, 1 mg/mL
[4] = in vivo; details: dog, po, 1 mg/mL; remark: listed apart in the source
[5] = in vivo; details: dog, plasma, po, 1 mg/mL
[6] = Oral bioavailability in monkey; assay type: ADME, organism-based, Macaca mulatta; details: rhesus monkey, in vivo
[7] = Oral bioavailability in dog; assay type: ADME, organism-based, Canis lupus familiaris; details: in vivo
[8] = Terminal half life in dog at 0.1 mg/kg, iv by cassette assay; assay type: ADME, organism-based, Canis lupus familiaris; design: dose 0.1 mg/kg, route intravenous; details: in vivo, read-out: beta t1/2 (converted)
[9] = Total clearance in rat at 0.32 mg/kg, iv by cassette assay; assay type: ADME, organism-based; design: dose 0.32 mg/kg, route intravenous; details: in vivo
[10] = Total clearance in monkey at 0.32 mg/kg, iv by cassette assay; assay type: ADME, organism-based, Macaca mulatta; design: dose 0.32 mg/kg, route intravenous; details: rhesus monkey, in vivo
[11] = Intrinsic clearance in human liver microsome; assay type: ADME; details: liver microsomes
[12] = Cmax in monkey at 0.32 mg/kg, po by cassette assay; assay type: ADME, organism-based, Macaca mulatta; design: dose 0.32 mg/kg, route oral; details: rhesus monkey, in vivo
[13] = Terminal half life in rat at 0.32 mg/kg, iv by cassette assay; assay type: ADME, organism-based; design: dose 0.32 mg/kg, route intravenous; details: in vivo, read-out: beta t1/2 (converted)
[14] = (§1) Bioavailability in monkey at 0.32 mg/kg, po by cassette assay; assay type: ADME, organism-based, Macaca mulatta; details: rhesus monkey, in vivo
[15] = Total clearance in dog at 0.1 mg/kg, iv by cassette assay; assay type: ADME, organism-based, Canis lupus familiaris; design: dose 0.1 mg/kg, route intravenous; details: in vivo
[16] = AUC (0 to 24 hrs) in dog at 0.1 mg/kg, po by cassette assay; assay type: ADME, organism-based, Canis lupus familiaris; design: time < 24 hr, dose 0.1 mg/kg, route oral; details: plasma
[17] = Intrinsic clearance in dog liver microsome; assay type: ADME, Canis lupus familiaris; details: liver microsomes
[18] = (§2) AUC (0 to 24 hrs) in monkey at 0.32 mg/kg, po by cassette assay; assay type: ADME, organism-based, Macaca mulatta, Plasma; design: time < 24 hr, dose 0.32 mg/kg, route oral; details: rhesus monkey, plasma
[19] = Bioavailability in rat at 0.32 mg/kg, po by cassette assay; assay type: ADME, organism-based; details: in vivo
[20] = Cmax in dog at 0.1 mg/kg, po by cassette assay; assay type: ADME, organism-based, Canis lupus familiaris; design: dose 0.1 mg/kg, route oral; details: in vivo
[21] = Terminal half life in monkey at 0.32 mg/kg, iv by cassette assay; assay type: ADME, organism-based, Macaca mulatta; design: dose 0.32 mg/kg, route intravenous; details: rhesus monkey, in vivo, read-out: beta t1/2 (converted)
[22] = in vitro; details: PAMPA, pH 6.5
[23] = Cmax in rat at 0.32 mg/kg, po by cassette assay; assay type: ADME, organism-based; design: dose 0.32 mg/kg, route oral; details: in vivo
[24] = Bioavailability in dog at 0.1 mg/kg, po by cassette assay; assay type: ADME, organism-based, Canis lupus familiaris; details: in vivo
[25] = AUC (0 to 24 hrs) in rat at 0.32 mg/kg, po by cassette assay; assay type: ADME, organism-based; design: time < 24 hr, dose 0.32 mg/kg, route oral; details: plasma
[26] = Intrinsic clearance in monkey liver microsome; assay type: ADME, Macaca mulatta; details: rhesus monkey, liver microsomes
[27] = system: Rhesus monkey; test: as §1; assay type: ADME, organism-based, Macaca mulatta; details: in vivo
[28] = Terminal half life in monkey at 0.186 mg/kg, iv by cassette assay; assay type: ADME, organism-based, Macaca mulatta; design: dose 0.186 mg/kg, route intravenous; details: rhesus monkey, in vivo, read-out: beta t1/2 (converted)
[29] = Cmax in dog at 2.0 mg/kg, po by cassette assay; assay type: ADME, organism-based, Canis lupus familiaris; design: dose 2 mg/kg, route oral; details: in vivo
[30] = system: Rhesus monkey; test: as §2; assay type: ADME, organism-based, Macaca mulatta, Plasma; design: time < 24 hr, dose 0.32 mg/kg, route oral; details: in vivo, 24 h
[31] = AUC (0 to 24 hrs) in dog at 2.0 mg/kg, po by cassette assay; assay type: ADME, organism-based, Canis lupus familiaris; design: time < 24 hr, dose 2 mg/kg, route oral; details: plasma
[32] = Bioavailability in dog at 0.2 mg/kg, po by cassette assay; assay type: ADME, organism-based, Canis lupus familiaris; details: in vivo
[33] = AUC (0 to 24 hrs) in monkey at 1.0 mg/kg, po by cassette assay; assay type: ADME, organism-based, Macaca mulatta; design: time < 24 hr, dose 1 mg/kg, route oral; details: rhesus monkey, plasma
[34] = Cmax in dog at 3.2 mg/kg, po by cassette assay; assay type: ADME, organism-based, Canis lupus familiaris; design: dose 3.2 mg/kg, route oral; details: in vivo
[35] = Cmax in monkey at 1.0 mg/kg, po by cassette assay; assay type: ADME, organism-based, Macaca mulatta; design: dose 1 mg/kg, route oral; details: rhesus monkey, in vivo
[36] = Terminal half life in rat at 0.83 mg/kg, iv by cassette assay; assay type: ADME, organism-based; design: dose 0.83 mg/kg, route intravenous; details: in vivo, read-out: beta t1/2 (converted)
[37] = Bioavailability in monkey at 1.0 mg/kg, po by cassette assay; assay type: ADME, organism-based, Macaca mulatta; details: rhesus monkey, in vivo
[38] = Total clearance in monkey at 0.83 mg/kg, iv by cassette assay; assay type: ADME, organism-based, Macaca mulatta; design: dose 0.83 mg/kg, route intravenous; details: rhesus monkey, in vivo
[39] = AUC (0 to 24 hrs) […] at 1.0 mg/kg, po by cassette assay; assay type: ADME, organism-based; design: time < 24 hr, dose 1 mg/kg, route oral; details: plasma
[40] = Bioavailability in dog at 3.2 mg/kg, po by cassette assay; assay type: ADME, organism-based, Canis lupus familiaris; details: in vivo
[41] = Intrinsic clearance in rat liver microsome; assay type: ADME; details: liver microsomes
[42] = Total clearance in rat at 0.83 mg/kg, iv by cassette assay; assay type: ADME, organism-based; design: dose 0.83 mg/kg, route intravenous; details: in vivo
[43] = Terminal half life in dog at 0.83 mg/kg, iv by cassette assay; assay type: ADME, organism-based, Canis lupus familiaris; design: dose 0.83 mg/kg, route intravenous; details: in vivo, read-out: beta t1/2 (converted)
[44] = Cmax […] at 1.0 mg/kg, po by cassette assay; assay type: ADME, organism-based; design: dose 1 mg/kg, route oral; details: in vivo
[45] = Terminal half life in monkey at 0.83 mg/kg, iv by cassette assay; assay type: ADME, organism-based, Macaca mulatta; design: dose 0.83 mg/kg, route intravenous; details: rhesus monkey, in vivo, read-out: beta t1/2 (converted)
[46] = Bioavailability in rat at 1.0 mg/kg, po by cassette assay; assay type: ADME, organism-based; details: in vivo
[47] = Cmax in rat at 1.0 mg/kg, po by cassette assay; assay type: ADME, organism-based; design: dose 1 mg/kg, route oral; details: in vivo
[48] = AUC (0 to 24 hrs) in rat at 1.0 mg/kg, po by cassette assay; assay type: ADME, organism-based; design: time < 24 hr, dose 1 mg/kg, route oral; details: plasma
[49] = AUC (0 to 24 hrs) in dog at 3.2 mg/kg, po by cassette assay; assay type: ADME, organism-based, Canis lupus familiaris; design: time < 24 hr, dose 3.2 mg/kg, route oral; details: plasma
[50] = Total clearance in dog at 0.83 mg/kg, iv by cassette assay; assay type: ADME, organism-based, Canis lupus familiaris; design: dose 0.83 mg/kg, route intravenous; details: in vivo
[51] = Bioavailability in dog at […], po by cassette assay; assay type: ADME, organism-based, Canis lupus familiaris; details: in vivo
[52] = AUC (0 to 24 hrs) in dog at […], po by cassette assay; assay type: ADME, organism-based, Canis lupus familiaris; design: time < 24 hr, route oral; details: plasma
[53] = Cmax in dog at […], po by cassette assay; assay type: ADME, organism-based, Canis lupus familiaris; design: route oral; details: in vivo

half-life [1]: 372 min
clearance [2]: 4.1 mL/min/kg
bioavailability [3]: 40%
Cmax [4]: 236 ng/mL
AUC(0-t) at 24 h [5]: 2470 ng·h/mL
Compound: O=C(O)c1ccc(Oc2ccc(CCNC[C@H](O)c3cccc(Cl)c3)cc2)cc1

half-life [8]: 594 min
clearance [9]: 4.4 mL/min/kg
clearance [10]: 0.9 mL/min/kg
CLint scaled [11]: < 1 mL/min/kg
Cmax [12]: 171 ng/mL
half-life [13]: 288 min
bioavailability [14]: 83%
clearance [15]: 4.9 mL/min/kg
AUC(0-t) at 24 h [16]: 149 ng·h/mL
CLint scaled [17]: < 1 mL/min/kg
AUC(0-t) at 24 h [18]: 4980 ng·h/mL
bioavailability [19]: 61%
Cmax [20]: 13 ng/mL
half-life [21]: 1120 min
Papp [22]: > 30 ×10⁻⁶ cm/s
Cmax [23]: 146 ng/mL
bioavailability [24]: 45%
AUC(0-t) at 24 h [25]: 700 ng·h/mL
Compound: CC(C)Oc1cc(-c2ccc(CCNC[C@H](O)c3cccc(Cl)c3)cc2)ccc1C(=O)O

half-life [8]: 870 min
clearance [9]: 7.5 mL/min/kg
CLint scaled [11]: < 1 mL/min/kg
Cmax [12]: 185 ng/mL
CLint scaled [26]: < 1 mL/min/kg
half-life [13]: 570 min
F [27]: 62%
clearance [15]: 4.8 mL/min/kg
half-life [28]: 1330 min
Cmax [29]: 25 ng/mL
AUC [30]: 209 ng·h/mL
bioavailability [19]: 80%
AUC(0-t) at 24 h [31]: 438 ng·h/mL
Papp [22]: 18 ×10⁻⁶ cm/s
Cmax [23]: 94.7 ng/mL
AUC(0-t) at 24 h [25]: 565 ng·h/mL
bioavailability [32]: 68%
Compound: CC(C)Oc1cc(-c2ccc(CCNC[C@H](O)c3ccccc3)cc2)ccc1C(=O)O

Papp [22]: 10 ×10⁻⁶ cm/s
Compound: CC(C)Sc1cc(-c2ccc(CCNC[C@H](O)c3ccccc3)cc2)ccc1C(=O)O

Papp [22]: > 30 ×10⁻⁶ cm/s
Compound: O=C(O)c1ccc(-c2ccc(CCNC[C@H](O)c3cccc(Cl)c3)cc2)cc1OC1CCCCC1

Papp [22]: 3.3 ×10⁻⁶ cm/s
Compound: COc1cc(-c2ccc(CCNC[C@H](O)c3cccc(Cl)c3)cc2)ccc1C(=O)O

half-life [1]: 738 min
clearance [2]: 4 mL/min/kg
bioavailability [51]: > 95%
AUC(0-t) at 24 h [52]: 1980 ng·h/mL
Cmax [53]: 111 ng/mL
Compound: O=C(O)c1ccc(-c2ccc(CCNC[C@H](O)c3cccc(Cl)c3)cc2)cc1

Further lines, the molecule ahead of its results:

Compound: O=S(=O)(Nc1ccc(CCNC[C@H](O)c2cccnc2)cc1)c1ccc(-c2nc(-c3ccc(C(F)(F)F)cc3)cs2)cc1
bioavailability [6]: 4%
bioavailability [7]: 27%

Compound: CC(C)Cc1cc(-c2ccc(CCNC[C@H](O)c3ccccc3)cc2)ccc1C(=O)O
Papp [22]: 26 ×10⁻⁶ cm/s

Compound: O=C(O)c1cccc(-c2cccc(NCCNC[C@H](O)c3cccc(Cl)c3)c2)c1 [SOLABEGRON]
bioavailability [6]: 46%

Compound: O=C(O)c1ccc(-c2ccc(CCNC[C@H](O)c3ccccc3)cc2)cc1OC1CCCCC1
Papp [22]: > 30 ×10⁻⁶ cm/s

Compound: CCOC(=O)COc1ccc2c(c1)C[C@@H](NC[C@H](O)c1cccc(Cl)c1)CCC2
AUC(0-t) at 24 h [33]: 398 ng·h/mL
Cmax [34]: 2070 ng/mL
Cmax [35]: 184 ng/mL
half-life [36]: 18 min
bioavailability [37]: 35%
clearance [38]: 11.8 mL/min/kg
CLint scaled [11]: 18.2 mL/min/kg
AUC(0-t) at 24 h [39]: 4100 ng·h/mL
bioavailability [40]: 73%
CLint scaled [41]: 35.4 mL/min/kg
CLint scaled [17]: 35.4 mL/min/kg
clearance [42]: 47.9 mL/min/kg
half-life [43]: 97.8 min
Cmax [44]: 1340 ng/mL
half-life [45]: 137 min
bioavailability [46]: 29%
Cmax [47]: 38 ng/mL
AUC(0-t) at 24 h [48]: 83 ng·h/mL
AUC(0-t) at 24 h [49]: 10600 ng·h/mL
clearance [50]: 3.7 mL/min/kg
